Read-outs that look alike come from different tables or passages of the source.
Key:
[1] = tested on: culturable microorganisms on the surface of G. mellonella larvae; assay: Measurement of surface contamination of larvae after alcohol decontamination (PBS wash plated on LB agar); type: cell-based; conditions: for percentage reduction in surface contaminants compared to control: n=10 (FIG. 1)
Procedure: Individual G. mellonella larva from groups of 10 were immersed thrice into 1 ml of PBS using sterilised forceps. The PBS wash was serially diluted, plated onto Luria Broth (LB) agar and incubated at 37° C. for 24 h. Any colonies of organisms visible after this period were counted. They may optionally be identified to species level, for example by use of 16S RNA sequencing. Ethanol was diluted with sterile water to 70% or 50% (v/v). We tested two different decontamination techniques. […] To assess the microbial flora after decontamination, we used the PBS washing method outlined above. Using the “bath” method, different lengths of time for decontamination were tested. […] The PBS was plated on LB agar; plates and G. mellonella larvae were incubated at 37° C. for 24 h. The health of larvae was monitored and contaminants on the plates counted. Further concentrations and decontamination treatment periods were studied. In each case, ten Galleria larvae were used, placed into a sterile mesh tray and immersed using the “dip” method into isopropyl alcohol, methanol or ethanol, prepared to varying concentrations by dilution with sterile water as described above. The treatment conditions were: Larvae were patted dry on paper towel and grasped with sterile forceps dip larvae individually into PBS three times, for measurement of surface contamination as described above.

G. mellonella larvae [2] = conditions: in vivo
Procedure: The larvae were used within two weeks of arrival. […] Larvae in a weight range between 0.2-0.3 g and light cream in colour were selected for experiments. […] The injection was performed into the right foreleg.
Using the “bath” method, different lengths of time for decontamination were tested. Using sterile tweezers each larvae was rolled in 20 ml of 50% ethanol for 10 s, 20 s, 30 s or 60 s, patted dry with blue roll and dipped in sterile PBS. The PBS was plated on LB agar; plates and G. mellonella larvae were incubated at 37° C. for 24 h. The health of larvae was monitored and contaminants on the plates counted.
Further concentrations and decontamination treatment periods were studied. In each case, ten Galleria larvae were used, placed into a sterile mesh tray and immersed using the “dip” method into isopropyl alcohol, methanol or ethanol, prepared to varying concentrations by dilution with sterile water as described above. The treatment conditions were:
These contaminants can be introduced into the larva haemolymph through the injection point when challenging larvae. We believe that the deaths we have seen in past experiments in control groups challenged with PBS was a consequence of the introduction of this microbial flora into the body cavity of the larvae. Deaths in control groups can make the interpretation of results from test groups difficult. Therefore, the plan in this study was to identify a way of surface decontaminating the larvae, so that deaths in control groups were avoided, and therefore improving the quality of the data obtained from experiments using G. mellonella larvae. Galleria larvae are scored as dead when there is no movement when gently probed with a pipette tip. Colour is also an indicator of a response to infection or injury as such larvae produce melanin which creates a colour change of cream to pale or dark brown (4).

G. mellonella larvae [3] = conditions: single 20 s bath exposure to 50% (v/v), 24 hours
Procedure: Final instar G. mellonella larvae were obtained from Live Foods UK and kept on woodchip at 15° C. until use. The larvae were used within two weeks of arrival. The Galleria larvae were screened for colour, weight and size before use. Larvae in a weight range between 0.2-0.3 g and light cream in colour were selected for experiments. Injections were carried out using a Hamilton syringe with 5 μl dispenser; 10 μl of inoculum was used per larva in each injection. The injection was performed into the right foreleg. Phosphate Buffer Saline (PBS, pH 7.2) was used as a control inoculum as it should not kill or harm the larvae.
We injected larvae with PBS before or after decontamination. […] For the second group, only 10 μl PBS was injected into the right foreleg, with no preliminary decontamination. All larvae were placed into an incubator at 37° C. for 24 h and monitored for health and survival.
Finally, we investigated whether decontamination of the larvae improved the survival of larvae which were subsequently injected with PBS. […] These larvae were dried and then injected 10 μl PBS into the right foreleg. The larvae were placed at 37° C. and survival recorded over the next 24 hours.

For CCO [Ethanol, ethanol], the “% reduction in microbial surface contamination” value (from here on “% reduction”) ([1]; 40%, 20 s immersion (dip)) was 95.7%, the “% reduction” value ([1]; 40%, 40 s immersion (dip)) was 99.2% and the “percentage reduction in surface contaminants compared to control” value (from here on “percentage reduction”) ([1]; 50% ethanol, bath technique) was 99.99%. For the same molecule, the “percentage reduction” value ([1]; 50% ethanol, dip technique) was 99.99%, the “% reduction” value ([1]; 50%, 20 s immersion (dip)) was 99.0% and the “% reduction” value ([1]; 50%, 40 s immersion (dip)) was 98.9%. The “% reduction” value ([1]; 50%, 50 s immersion (dip)) was 99.4%, the “% reduction” value ([1]; 60%, 20 s immersion (dip)) was 98.4% and the “% reduction” value ([1]; 60%, 40 s immersion (dip)) was 99.1%. The “percentage reduction” value ([1]; 70% ethanol, bath technique) was 99.98%, the “percentage reduction” value ([1]; 70% ethanol, dip technique) was 99.52% and the “larval survival 24 hrs” value (G. mellonella larvae [2]; Galleria mellonella, 40 %) was 10/10. For the same molecule, the “larval survival 24 hrs” value (G. mellonella larvae [2]; Galleria mellonella, 50 %) was 10/10, the “larval survival 24 hrs” value (G. mellonella larvae [2]; Galleria mellonella, 60 %) was 10/10 and the “larval survival 48 hrs” value (G. mellonella larvae [2]; Galleria mellonella, 48 h, 40 %) was 10/10. The “larval survival 48 hrs” value (G. mellonella larvae [2]; Galleria mellonella, 48 h, 50 %) was 10/10, the “Observations at 48 h (death)” value (G. mellonella larvae [2]; Galleria mellonella, 48 h, 50 % (v/v)) was 15% death and the “larval survival 72 hrs” value (G. mellonella larvae [2]; Galleria mellonella, 40 %) was 10/10. For the same molecule, the “larval survival 72 hrs” value (G. mellonella larvae [2]; Galleria mellonella, 50 %) was 10/10, the “Observations at 48 h” value (G. mellonella larvae [2]) was “No death or pigment change” and the “groups of larvae with 100% survival after PBS injection” value (G. mellonella larvae [3]; 10 μl PBS into right foreleg, 37° C., groups of 10) was 19/20. The “reduction in deaths versus un-decontaminated larvae injected with PBS” value (G. mellonella larvae [3]; PBS injection) was 83%.
CC(C)O [Isopropyl alcohol, isopropanol] was tested, and the “% reduction” value ([1]; 50%, 20 s immersion (dip)) was 99.9%, the “% reduction” value ([1]; 50%, 40 s immersion (dip)) was 99.9% and the “% reduction” value ([1]; 70%, 20 s immersion (dip)) was 99.9%. The “% reduction” value ([1]; 70%, 40 s immersion (dip)) was 99.8%.
In the case of CO [Methanol, methanol], the “% reduction” value ([1]; 50%, 20 s immersion (dip)) is reported as 99.0%, the “% reduction” value ([1]; 50%, 40 s immersion (dip)) is reported as 99.7% and the “% reduction” value ([1]; 70%, 20 s immersion (dip)) is reported as 99.9%. For the same molecule, the “% reduction” value ([1]; 70%, 40 s immersion (dip)) was 99.9%.

Source: US10683121B2, “Method for preparation of research organisms” (BIOSYSTEMS TECHNOLOGY LIMITED, priority 2015, dated 2020)
